Measurements as given in ChEMBL document CHEMBL5728173, “N4-hydroxycytidine and derivatives and anti-viral uses related thereto” (2020).

Assay: antiviral activity: Several derivatives of EIDD-01931 have shown antiviral activity in screening against various viruses. Activity data is shown in the tables below. Norovirus SARS Coronavirus GT1 Orbani HG23 Vero 76.

SMILES	EC50 [µM]
O=c1nc(NO)ccn1[C@@H]1O[C@H](CO)[C@H](O)C1O (stereo partly drawn)	> 3860
CC1(O)[C@@H](O)[C@@H](CO)O[C@H]1n1ccc(NO)nc1=O (stereo partly drawn)	> 366

Assay: CPE Assay: Primary cytopathic effect (CPE) reduction assay. Four-concentration CPE inhibition assays are performed. Confluent or near-confluent cell culture monolayers in 96-well disposable microplates are prepared.

SMILES	EC50 [µM]
O=c1nc(NO)cc[nH]1 [N4-hydroxycytosine]	> 78
CC(C)(C)C(=O)OCOP(=O)(OCOC(=O)C(C)(C)C)OC[C@@]1(N=[N+]=[N-])O[C@@H](n2ccc(=O)[nH]c2=O)C(O)[C@H]1O (stereo partly drawn)	56
CCCCCCCCCCCCCCCCNC(=O)ONc1ccn([C@@H]2O[C@H](CO)[C@H](O)C2O)c(=O)n1 (stereo partly drawn)	> 78
CCCCCCCNC(=O)OC[C@H]1O[C@@H](n2ccc(NO)nc2=O)C(O)[C@H]1O (stereo partly drawn)	> 78
C#CC1(O)[C@@H](O)[C@@H](COP(=O)(OCOC(=O)C(C)(C)C)OCOC(=O)C(C)(C)C)O[C@H]1n1ccc(=O)[nH]c1=O (stereo partly drawn)	64.4
CCOP(=O)(OCC)OC[C@H]1O[C@@H](n2ccc(NO)nc2=O)C(O)[C@H]1O (stereo partly drawn)	> 78
O=c1nc(NO)ccn1[C@@H]1O[C@H](COP2(=O)OCc3ccccc3O2)[C@H](O)C1O (stereo partly drawn)	10.8
CCCCCCCNC(=O)ONc1ccn([C@H]2O[C@H](CO)[C@H](O)C2O)c(=O)n1 (stereo partly drawn)	38
O=c1nc(NO)ccn1[C@@H]1O[C@H](CO)[C@H](O)C1F (stereo partly drawn)	> 75
CONc1ccn([C@@H]2O[C@H](CO)[C@H](O)C2(C)O)c(=O)n1 (stereo partly drawn)	> 75
CC1(O)[C@H]2OP(=O)(Oc3ccccc3)OC[C@H]2O[C@H]1n1ccc(=O)[nH]c1=O (stereo partly drawn)	> 78
CC1(O)[C@@H](O)[C@@H](CO)O[C@H]1n1ccc(NO)nc1=O (stereo partly drawn)	72
CC(C)(C)C(=O)OCOP(=O)(OCOC(=O)C(C)(C)C)OC[C@H]1O[C@@H](n2ccc(=O)[nH]c2=O)C(C)(F)[C@H]1O (stereo partly drawn)	58
CC1(F)[C@@H](O)[C@@H](CO)O[C@H]1n1ccc(NO)nc1=O (stereo partly drawn)	> 75
CNC(=O)ONc1ccn([C@@H]2O[C@H](CO)[C@H](O)C2O)c(=O)n1 (stereo partly drawn)	32
CCCCCCCNC(=O)ONc1ccn([C@@H]2O[C@H](CO)[C@H](O)C2O)c(=O)n1 (stereo partly drawn)	29
NNc1ccn([C@@H]2O[C@H](CO)[C@H](O)C2O)c(=O)n1 (stereo partly drawn)	> 78
CN(C)C(=O)ONc1ccn([C@@H]2O[C@H](CO)[C@H](O)C2O)c(=O)n1 (stereo partly drawn)	25
CCCCCCCCC(=O)OC[C@H]1O[C@@H](n2ccc(NO)nc2=O)C(O)[C@H]1O (stereo partly drawn)	0.3
O=c1ccn([C@@H]2O[C@H](CO)[C@H](O)C23CC3(F)F)c(=O)[nH]1 (stereo partly drawn)	> 78
CCCCCCCCCCCCCCCCOCCCOP(=O)(O)OC[C@H]1O[C@@H](n2ccc(NO)nc2=O)C(O)[C@H]1O (stereo partly drawn)	34.5
